Drawing on patent US6906198B1, “Antipicornaviral compounds, their preparation and use” (Agouron Pharmaceuticals, Inc., priority 1998, dated 2005), this text covers CC50 for 13 molecules.

Molecules are shown by their SMILES. Some results are limits rather than exact numbers.

A short description of the data set: Cytotoxicity in mock-infected H1-HeLa cells (antirhinoviral assay, XTT). The format is cell-based. The note with it: human, 50% cytotoxic dose. As to the method:
H1-HeLa cells were infected with HRV-14 at a multiplicity of infection (m.o.i.) of 0.13 (virus particles/cell) or mock-infected with medium only. Infected or mock-infected cells were resuspended at 8×10^5 cells per mL, and incubated with appropriate concentrations of the compounds to be tested. Two days later, XTT/PMS was added to test plates and the amount of formazan produced was quantified spectrophotometrically at 450/650 nm. The EC50 value was calculated as the concentration of compound that increased the percentage of formazan production in compound-treated, virus-infected cells to 50% of that produced by compound-free, mock-infected cells. The 50% cytotoxic dose (CC50) was calculated as the concentration of compound that decreased the percentage of formazan produced in compound-treated, mock-infected cells to 50% of that produced by compound-free, mock-infected cells. The therapeutic index (TI) was calculated by dividing the CC50 value by the EC50 value.
All strains of human rhinovirus (HRV) for use in this assay were purchased from American Type Culture Collection (ATCC), except for HRV serotype-14 (produced from the infectious cDNA clone constructed by Dr. Robert Rueckert, Institute for Molecular Virology, University of Wisconsin, Madison, Wis.). HRV stocks were propagated and viral assays were performed in H1-HeLa cells (ATCC). Cells were grown in minimal essential medium with 10% fetal bovine serum, available from Life Technologies (Gaithersburg, Md.).
Usually CC50 stands for the concentration at which the toxic effect on the cells reaches its halfway point. Consider `CCOC(=O)/C=C/[C@H](CCC(N)=O)NC(=O)[C@H](Cc1ccccc1)NC(=O)[C@H](CC(C)C)NC(=O)c1ccno1` [(A-2), Ethyl-3-((Isoxazole-5′-carbonyl)-L-Leu-L-Phe-L-Gin)-E-Propenoate], for which the CC50 at 2 days is > 100 µM.

With `CCOC(=O)/C=C/[C@H](CCC(N)=O)NC(=O)[C@H](Cc1ccc(C)cc1)NC(=O)[C@@H](NC(=O)c1cc(C)on1)C(C)(C)C` [(A-3), Ethyl-3-((5′-Methylisoxazole-3′-carbonyl)-L-α-(t-Butyl-Gly)-L-(4-Me-Phe)-L-Gln)-E-Propenoate], the cytotoxic concentration (CC50) at 2 days was > 10 µM.

`CCOC(=O)/C=C/[C@H](CCC(N)=O)NC(=O)[C@H](Cc1ccc(F)cc1)NC(=O)[C@@H](NC(=O)c1cc(C)on1)C(C)(C)C` [(A-4), Ethyl-3-((5′-Methylisoxazole-3′-carbonyl)-L-α-(t-Butyl-Gly)-L-(4-F-Phe)-L-Gln)-E-Propenoate]: the 50% cytotoxic concentration (CC50) at 2 days was > 100 µM.

For `CCOC(=O)/C=C/[C@H](CCC(N)=O)NC(=O)[C@H](Cc1ccc(F)cc1)NC(=O)[C@@H](NC(=O)c1cc(C)on1)C(C)C` [(A-6), Ethyl-3-[(5′-Methylisoxazole-3′-carbonyl)-L-Val-L-(4-F-Phe)-L-Gln]-E-Propenoate], the CC50 at 2 days is > 100 µM.

`CCOC(=O)/C=C/[C@H](CCC(N)=O)NC(=O)[C@H](Cc1ccc(F)cc1)N(C)C(=O)[C@H](Cc1c[nH]cn1)NC(=O)c1cc(C)on1` [(A-9), Ethyl-3-{(5′-Methylisoxazole-3′-carbonyl)-L-His-NCH3-L-(4-F-Phe)-L-Gln}-E-Propenoate]: the CC50 at 2 days is > 100 µM.

`CCOC(=O)/C=C/[C@H](CCC(N)=O)NC(=O)[C@H](Cc1ccc(F)cc1)N(C)C(=O)[C@H](Cc1ccc2ccccc2c1)NC(=O)c1cc(C)on1` [(A-11), Ethyl-3-{(5′-Methylisoxazole-3′-carbonyl)-L-(2-Naphth)-NCH3-L-(4-F-Phe)-L-Gln}-E-Propenoate]: it took 50 µM to reach half-maximal cytotoxicity (CC50 at 2 days).

Turning to `CCOC(=O)/C=C/[C@H](CCC(N)=O)NC(=O)[C@H](Cc1ccc(F)cc1)N(C)C(=O)[C@H](CC(C)C)NC(=O)c1cc(C)on1` [(A-12), Ethyl-3-{(5′-Methylisoxazole-3′-carbonyl)-L-Leu-NCH3-L-(4-F-Phe)-L-Gln}-E-Propenoate], the CC50 at 2 days was > 100 µM.

Consider `CCOC(=O)/C=C/[C@H](CCC(N)=O)NC(=O)[C@H](Cc1ccc(F)cc1)N(C)C(=O)[C@H](Cc1cccc2ccccc12)NC(=O)c1cc(C)on1` [(A-13), Ethyl-3-{(5′-Methylisoxazole-3′-carbonyl)-L-(1-Naphth)-NCH3-L-(4-F-Phe)-L-Gln}-E-Propenoate], for which the CC50 at 2 days is > 10 µM.

Turning to `CCOC(=O)/C=C/[C@H](C[C@@H]1CCNC1=O)NC(=O)[C@H](Cc1ccccc1)NC(=O)[C@H](CC(C)C)NC(=O)OCc1ccccc1` [(A-24), Ethyl-3-{Cbz-L-Leu-L-Phe-L-((S)-Pyrrol-Ala)}-E-Propenoate], the CC50 at 2 days was > 100 µM.

`CCOC(=O)/C=C/[C@H](C[C@@H]1CCNC1=O)NC(=O)[C@H](Cc1ccccc1)NC(=O)[C@@H](NC(=O)OCc1ccccc1)C(C)C` [(A-25), Ethyl-3-{Cbz-L-Val-L-Phe-L-((S)-Pyrrol-Ala)}-E-Propenoate]: the CC50 at 2 days is > 100 µM.

In the case of `CCOC(=O)/C=C/[C@H](C[C@@H]1CCCNC1=O)NC(=O)[C@H](Cc1ccccc1)NC(=O)[C@H](CC(C)C)NC(=O)OCc1ccccc1` [(A-26), Ethyl-3-{Cbz-L-Leu-L-Phe-L-((S)-Piper-Ala)}-E-Propenoate], the CC50 at 2 days was > 100 µM.

On to `CCOC(=O)/C=C/[C@H](C[C@H]1CCNC1=O)NC(=O)[C@H](Cc1ccccc1)NC(=O)[C@H](CC(C)C)NC(=O)OCc1ccccc1` [(A-27), Ethyl-3-{Cbz-L-Leu-L-Phe-L-((R)-Pyrrol-Ala)}-E-Propenoate], for which the CC50 at 2 days was > 100 µM.

Take `Cc1cc(C(=O)N[C@H](C(=O)C[C@@H](Cc2ccc(F)cc2)C(=O)N[C@H](/C=C2\CCOC2=O)C[C@@H]2CCNC2=O)C(C)C)no1` [(B-3), 2-{(5′-Methylisoxazole-3′-carbonyl)-L-ValΨ(COCH2)-L-(4-F-Phe)-L-((S)-Pyrrol-Ala)}-E-(α-Vinyl-γ-Butyrolactone)]: the CC50 at 2 days was > 100 µM.
